57 molecules from patent US20230382904A1, “SUBSTITUTED 4-([1,2,4]TRIAZOLO[1,5-a]PYRIDIN-6-YL)THIOPHENE-2-CARBOXAMIDE DERIVATIVES AND USE THEREOF” (The Johns Hopkins University, priority 2020, published 2023) can be followed below.

Where only a bound is given, the exact number is not on record here.

As a reminder, the IC50 is the concentration that gives 50% inhibition. Low readings indicate inhibition by little substance, high ones a need for much substance.

Assay [1] concerns the target DLK (Homo sapiens (Human), UniProt Q12852). The assay can be described thus: DLK biochemical assay (TR-FRET, MKK7 phosphorylation). In a few lines:
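Catalytic-domain DLK (10 nM) phosphorylates His-MKK7 (15 nM) with 60 μM ATP, 90 min at RT, in pH 7.5 HEPES buffer. Phospho-T275/S277 read by TR-FRET (Eu anti-phospho donor, XL665 anti-His acceptor) after 16 h detection, at 37° C. in 1536 or 4° C. in 384 format.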
(In general: Time-resolved FRET reads energy transfer from a long-lived donor to a nearby acceptor.)

In assay [2] the target is LZK (Homo sapiens (Human), UniProt O43283). The assay can be described thus: LZK biochemical assay (TR-FRET, MKK7 phosphorylation). In a few lines: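 Catalytic-domain LZK (10 nM) phosphorylated His-MKK7 (15 nM) with 15 μM ATP for 90 min at RT. Phospho-T275/S277 detected by Eu-anti-phospho-MKK7/XL665-anti-His TR-FRET after 16 h at 32° C, using the 665/Eu ratio. Buffer: 50 mM Hepes pH 7.5, 10 mM MgCl2, 1 mM DTT.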
LZK, sequence (O43283 168-409): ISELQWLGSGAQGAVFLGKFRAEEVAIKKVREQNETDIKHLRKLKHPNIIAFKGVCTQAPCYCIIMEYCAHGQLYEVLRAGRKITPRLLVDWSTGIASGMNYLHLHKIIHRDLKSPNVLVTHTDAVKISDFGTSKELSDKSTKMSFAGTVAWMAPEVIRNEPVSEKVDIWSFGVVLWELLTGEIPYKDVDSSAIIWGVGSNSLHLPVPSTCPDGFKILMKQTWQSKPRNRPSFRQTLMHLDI

DLK, sequence (Q12852 1-520): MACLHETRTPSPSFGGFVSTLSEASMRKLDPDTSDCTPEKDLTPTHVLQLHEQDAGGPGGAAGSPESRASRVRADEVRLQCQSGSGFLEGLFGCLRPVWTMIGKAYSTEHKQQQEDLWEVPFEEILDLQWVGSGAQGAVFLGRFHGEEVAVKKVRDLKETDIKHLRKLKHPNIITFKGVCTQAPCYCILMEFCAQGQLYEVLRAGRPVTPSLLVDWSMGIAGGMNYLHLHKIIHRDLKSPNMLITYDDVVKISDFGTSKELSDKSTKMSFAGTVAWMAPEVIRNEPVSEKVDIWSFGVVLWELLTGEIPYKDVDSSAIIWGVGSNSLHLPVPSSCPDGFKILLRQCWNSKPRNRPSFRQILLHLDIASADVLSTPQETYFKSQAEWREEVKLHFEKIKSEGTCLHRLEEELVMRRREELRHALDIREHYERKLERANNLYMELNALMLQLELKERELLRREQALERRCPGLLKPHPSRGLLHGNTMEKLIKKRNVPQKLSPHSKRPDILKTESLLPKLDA

Regarding `COc1cccc(C(C)NC(=O)c2cc(-c3ccc4nc(N)nn4c3)cs2)c1` (stereo not drawn) [Compound 232], the IC50 is 0.2 µM in assay [1] and 25 µM in assay [2].
Regarding `Cc1cccc(C)c1NC(=O)c1cc(-c2ccc3nc(N)nn3c2)cs1` [Compound 233], the IC50 in assay [1] was 0.44 µM; in assay [2], 17 µM.
Take `COc1cc(CNC(=O)c2cc(-c3ccc4nc(N)nn4c3)cs2)ccn1` [Compound 234]: the IC50 in assay [1] was 0.47 µM; in assay [2], 18 µM.
On to `COc1cncc(CNC(=O)c2cc(-c3ccc4nc(N)nn4c3)cs2)c1` [Compound 235], for which the IC50 in assay [1] came out at 0.37 µM; in assay [2], 23 µM.
In the same order, the values of `N#Cc1cccc(CNC(=O)c2cc(-c3ccc4nc(N)nn4c3)cs2)c1` [Compound 236] are 0.315 µM and above 30 µM.
Turning to `COc1cc(CNC(=O)c2cc(-c3ccc4nc(N)nn4c3)cs2)cc(OC)c1` [Compound 238], the half-maximal inhibitory concentration (IC50) in assay [1] is 0.27 µM; in assay [2], above 30 µM.
For the molecule `Nc1nc2ccc(-c3csc(C(=O)NCc4ncco4)c3)cn2n1` [Compound 239], the IC50 in assay [1] was 1.85 µM; in assay [2] it was 18 µM.
As for `Cc1csc(CNC(=O)c2cc(-c3ccc4nc(N)nn4c3)cs2)n1` [Compound 240], the half-inhibitory concentration (IC50) in assay [1] turned out to be 0.64 µM; in assay [2], 6.3 µM.
With `Cn1ccnc1CNC(=O)c1cc(-c2ccc3nc(N)nn3c2)cs1` [Compound 241], the IC50 in assay [1] came out at 1.3 µM; in assay [2], 21 µM.
Take `Cn1ccc(CNC(=O)c2cc(-c3ccc4nc(N)nn4c3)cs2)n1` [Compound 242]: the IC50 in assay [1] was found to be 1.8 µM; in assay [2] it was 19 µM.
With `Cc1cn(C)nc1CNC(=O)c1cc(-c2ccc3nc(N)nn3c2)cs1` [Compound 243], the IC50 worked out at 1.5 µM in assay [1] and 17 µM in assay [2].
With `Nc1nc2ccc(-c3csc(C(=O)NCc4nc(C(F)(F)F)cs4)c3)cn2n1` [Compound 245], the results for the IC50 in assay [1] and in assay [2] were 1.3 µM and above 30 µM, respectively.
Take `Nc1nc2ccc(-c3csc(C(=O)NCc4nc5ccccc5o4)c3)cn2n1` [Compound 246]: the results for the IC50 in assay [1] and in assay [2] were 1.14 µM and 4.4 µM, respectively.
With `COc1ccc2oc(CNC(=O)c3cc(-c4ccc5nc(N)nn5c4)cs3)nc2c1` [Compound 247], the IC50 in assay [1] is 0.8 µM; in assay [2], 3.8 µM.
In the same order, the values of `CC(C)c1csc(CNC(=O)c2cc(-c3ccc4nc(N)nn4c3)cs2)n1` [Compound 249] are 0.745 µM and 7.6 µM.
For the molecule `Nc1nc2ccc(-c3csc(C(=O)NCc4cnc(Cl)s4)c3)cn2n1` [Compound 250], the IC50 turned out to be 0.935 µM in assay [1] and 4.5 µM in assay [2].
For `Cn1cnc(CNC(=O)c2cc(-c3ccc4nc(N)nn4c3)cs2)c1` [Compound 251], the half-inhibitory concentration (IC50) in assay [1] amounted to 1.96 µM; in assay [2], 9.1 µM.
In the case of `COc1cccc(CNC(=O)c2cc(-c3ccc4nc(N)nn4c3)cs2)n1` [Compound 254], the IC50 in assay [1] amounted to 1 µM; in assay [2] it was 10 µM.
Turning to `Cn1nccc1CNC(=O)c1cc(-c2ccc3nc(N)nn3c2)cs1` [Compound 255], the IC50 in assay [1] was determined as 1.99 µM; in assay [2] it was 4.4 µM.
As to `COc1ccnc(CNC(=O)c2cc(-c3ccc4nc(N)nn4c3)cs2)c1` [Compound 256], the IC50 was determined as 1.6 µM in assay [1] and 17 µM in assay [2].
`Nc1nc2ccc(-c3csc(C(=O)NCc4cn5ccccc5n4)c3)cn2n1` [Compound 257]: the IC50 in assay [1] was 1.1 µM; in assay [2] it was above 30 µM.
`COc1ccc2c(c1)nc(CNC(=O)c1cc(-c3ccc4nc(N)nn4c3)cs1)n2C` [Compound 260]: the figures for the IC50 in assay [1] and in assay [2] were 1.2 µM and above 30 µM, respectively.
In the case of `Nc1nc2ccc(-c3csc(C(=O)NCc4cnc5ccccn45)c3)cn2n1` [Compound 261], the IC50 in assay [1] turned out to be 0.51 µM; in assay [2], 14 µM.
For the molecule `COc1cccc([C@H](C)NC(=O)c2cc(-c3ccc4nc(N)nn4c3)cs2)c1` [Compound 263], the IC50 in assay [1] is 0.355 µM; in assay [2], above 30 µM.
For `COc1cccc([C@@H](C)NC(=O)c2cc(-c3ccc4nc(N)nn4c3)cs2)c1` [Compound 264] the same measures were 0.505 µM and above 30 µM.
Consider `C[C@H](NC(=O)c1cc(-c2ccc3nc(N)nn3c2)cs1)c1cccc(Cl)c1` [Compound 265], for which the values for the 50% inhibitory concentration (IC50) in assay [1] and in assay [2] were 0.13 µM and above 30 µM, respectively.
Take `C[C@@H](NC(=O)c1cc(-c2ccc3nc(N)nn3c2)cs1)c1cccc(Cl)c1` [Compound 267]: the 50% inhibitory concentration (IC50) in assay [1] is 0.26 µM; in assay [2], above 30 µM.
Regarding `COc1ccc2c(c1)C(NC(=O)c1cc(-c3ccc4nc(N)nn4c3)cs1)CC(C)(C)O2` (stereo not drawn) [Compound 268], the IC50 in assay [1] worked out at 0.18 µM; in assay [2] it was 22 µM.
In the same order, the values of `COc1cccc(C(C)(C)NC(=O)c2cc(-c3ccc4nc(N)nn4c3)cs2)c1` [Compound 269] are 0.59 µM and above 30 µM.
Take `CCNC(=O)c1cc(-c2ccc3nc(N)nn3c2)cs1` [Compound 270]: the IC50 in assay [1] was 3.5 µM; in assay [2], above 30 µM.
For the molecule `COCCCNC(=O)c1cc(-c2ccc3nc(N)nn3c2)cs1` [Compound 271], the IC50 in assay [1] is 3.5 µM; in assay [2], above 30 µM.
On to `COC1CCC(NC(=O)c2cc(-c3ccc4nc(N)nn4c3)cs2)C1` (stereo not drawn) [Compound 272], for which the IC50 in assay [1] is 1.5 µM; in assay [2], above 30 µM.
In the same order, the values of `Nc1nc2ccc(-c3csc(C(=O)NCc4ccsc4)c3)cn2n1` [Compound 273] are 0.58 µM and 14 µM.
As for `Nc1nc2ccc(-c3csc(C(=O)NCc4cccs4)c3)cn2n1` [Compound 274], the values for the IC50 in assay [1] and in assay [2] were 0.26 µM and 11 µM, respectively.
For `Nc1nc2ccc(-c3csc(C(=O)NCc4ccco4)c3)cn2n1` [Compound 275] the same measures were 0.63 µM and 16 µM.
Regarding `Cn1cccc1CNC(=O)c1cc(-c2ccc3nc(N)nn3c2)cs1` [Compound 276], the IC50 in assay [1] was determined as 0.42 µM; in assay [2], 15 µM.
As for `Nc1nc2ccc(-c3csc(C(=O)NCc4ccoc4)c3)cn2n1` [Compound 277], the IC50 in assay [1] was determined as 0.48 µM; in assay [2], 18 µM.
With `CCc1ccccc1NC(=O)c1cc(-c2ccc3nc(N)nn3c2)cs1` [Compound 278], the half-maximal inhibitory concentration (IC50) in assay [1] is 0.44 µM; in assay [2] it was above 30 µM.
For `Nc1nc2ccc(-c3csc(C(=O)NCc4ccc(OCCN5CCCCC5)cc4)c3)cn2n1` [Compound 279] the same measures were 2.1 µM and above 30 µM.
Consider `COC(=O)c1cccc(CNC(=O)c2cc(-c3ccc4nc(N)nn4c3)cs2)c1` [Compound 280], for which the IC50 in assay [1] came out at 0.25 µM; in assay [2], 23 µM.
In the same order, the values of `Nc1nc2ccc(-c3csc(C(=O)NCc4ccc(OCCN5CCOCC5)cc4)c3)cn2n1` [Compound 281] are 1.5 µM and above 30 µM.
In the case of `COc1cccc(CCNC(=O)c2cc(-c3ccc4nc(N)nn4c3)cs2)c1` [Compound 282], the values for the 50% inhibitory concentration (IC50) in assay [1] and in assay [2] were 0.75 µM and above 30 µM, respectively.
For the molecule `Nc1nc2ccc(-c3csc(C(=O)NCCc4c(F)cccc4Cl)c3)cn2n1` [Compound 283], the IC50 was 0.53 µM in assay [1] and above 30 µM in assay [2].
In the case of `CN(CCc1ccccc1)C(=O)c1cc(-c2ccc3nc(N)nn3c2)cs1` [Compound 284], the IC50 was 2.6 µM in assay [1] and above 30 µM in assay [2].
Consider `Nc1nc2ccc(-c3csc(C(=O)NCc4cccc(C(=O)O)c4)c3)cn2n1` [Compound 285], for which the IC50 in assay [1] was determined as 1.7 µM; in assay [2], 20 µM.
With `Nc1nc2ccc(-c3csc(C(=O)Nc4ccccc4OC(F)(F)F)c3)cn2n1` [Compound 286], the figures for the IC50 in assay [1] and in assay [2] were 0.6 µM and above 30 µM, respectively.
With `CCN1CCC[C@@H](NC(=O)c2cc(-c3ccc4nc(N)nn4c3)cs2)C1` [Compound 287], the IC50 is 5.7 µM in assay [1] and above 30 µM in assay [2].
Turning to `Nc1nc2ccc(-c3csc(C(=O)Nc4ccccc4OC(F)F)c3)cn2n1` [Compound 288], the IC50 in assay [1] came to 2.4 µM; in assay [2], 20 µM.
For `Nc1nc2ccc(-c3csc(C(=O)Nc4ccccc4CO)c3)cn2n1` [Compound 289] the same measures were 2.6 µM and 2 µM.
Take `COc1cccc(C(CCO)NC(=O)c2cc(-c3ccc4nc(N)nn4c3)cs2)c1` (stereo not drawn) [Compound 290]: the IC50 in assay [1] turned out to be 0.62 µM; in assay [2] it was 7.4 µM.
As for `COc1cccc(C2(NC(=O)c3cc(-c4ccc5nc(N)nn5c4)cs3)CC2)c1` [Compound 291], the IC50 in assay [1] was determined as 0.71 µM; in assay [2] it was 14 µM.
In the same order, the values of `COCCOc1cccc(CNC(=O)c2cc(-c3ccc4nc(N)nn4c3)cs2)c1` [Compound 292] are 1.2 µM and 19 µM.
Turning to `CC(C)c1ccccc1NC(=O)c1cc(-c2ccc3nc(N)nn3c2)cs1` [Compound 293], the figures for the half-maximal inhibitory concentration (IC50) in assay [1] and in assay [2] were 0.26 µM and above 30 µM, respectively.
Regarding `CC(O)c1ccccc1NC(=O)c1cc(-c2ccc3nc(N)nn3c2)cs1` (stereo not drawn) [Compound 294], the IC50 in assay [1] is 0.71 µM; in assay [2], above 30 µM.
Consider `Nc1nc2ccc(-c3csc(C(=O)NCc4ccc5c(c4)OCO5)c3)cn2n1` [Compound 295], for which the IC50 in assay [1] was 0.39 µM; in assay [2], 14 µM.
With `COc1cccc(CNC(=O)c2cc(-c3cn4nc(N)nc4cc3F)cs2)c1` [Compound 296], the IC50 in assay [1] was found to be 0.73 µM; in assay [2] it was 12 µM.
Consider `Nc1nc2cc(F)c(-c3csc(C(=O)NCc4ccccc4)c3)cn2n1` [Compound 297], for which the 50% inhibitory concentration (IC50) stood at 0.71 µM in assay [1] and 11 µM in assay [2].
